According to ChEMBL document CHEMBL1137072, “Peptide deformylase inhibitors with activity against respiratory tract pathogens” (Bioorg Med Chem Lett, 2004):
Converted amounts (≈) assume the structure as drawn.

The compounds below were run on Streptococcus pneumoniae (assay: Minimum inhibitory concentration required for primary screening against in-house strain of Streptococcus pneumoniae tested in vitro; Range-0.008-2).
Assay type: functional

Compound	MIC90 [µg/mL]
CC1(C)S[C@@H]2[C@H](NC(=O)Cc3ccccc3)C(=O)N2[C@H]1C(=O)[O-].[Na+] [PENICILLIN G SODIUM]	1

These compounds were tested on Escherichia coli (assay: Minimum inhibitory concentration required for primary screening against in-house strain of Escherichia coli tested in vitro).
Assay type: functional

Compound	MIC [µM]
CCCC[C@H](CN(O)C=O)C(=O)N[C@H](C(=O)c1ccccc1)C(C)(C)C	12.5 (≈ 4.53 µg/mL)
CC(C)(C)[C@H](NC(=O)[C@H](CC1CCCC1)CN(O)C=O)C(=O)c1ccc(S(C)(=O)=O)cc1	25 (≈ 11.7 µg/mL)
CC(C)(C)[C@H](NC(=O)[C@H](CC1CCCC1)CN(O)C=O)C(=O)c1ccc(O)cc1	6.25 (≈ 2.53 µg/mL)
CCCC[C@H](CN(O)C=O)C(=O)N[C@H](C(=O)c1ccc(NC(C)=O)cc1)C(C)(C)C	12 (≈ 5.03 µg/mL)
CCCC[C@H](CN(O)C=O)C(=O)N[C@H](C(=O)c1ccc(C#N)cc1)C(C)(C)C	6.25 (≈ 2.42 µg/mL)
CCCC[C@H](CN(O)C=O)C(=O)N[C@H](C(C)=O)C(C)(C)C	25 (≈ 7.51 µg/mL)

The compounds below were run against T1, Peptide deformylase (Escherichia coli, UniProt Q9JN24) (assay: Inhibitory activity against Escherichia coli peptide deformylase (PDF) Nickel containing enzyme).
T1 sequence (Q9JN24 whole entry): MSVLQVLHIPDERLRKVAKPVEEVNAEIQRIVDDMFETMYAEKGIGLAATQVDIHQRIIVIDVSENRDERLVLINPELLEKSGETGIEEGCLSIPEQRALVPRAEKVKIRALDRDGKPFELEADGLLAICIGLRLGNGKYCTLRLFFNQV

Compound	IC50 [nM]
CCCC[C@H](CN(O)C=O)C(=O)N[C@H](C(=O)c1ccc(NS(C)(=O)=O)cc1)C(C)(C)C	4
CCCC[C@H](CN(O)C=O)C(=O)N[C@H](C(=O)c1ccc(OC)cc1)C(C)(C)C	1
CC(C)(C)[C@H](NC(=O)[C@H](CC1CCCC1)CN(O)C=O)C(=O)c1ccc(S(C)(=O)=O)cc1	10
CCCC[C@H](CN(O)C=O)C(=O)N[C@H](C(=O)c1ccc(F)cc1)C(C)(C)C	3
CCCC[C@H](CN(O)C=O)C(=O)N[C@H](C(=O)c1ccccn1)C(C)(C)C	3
CCCC[C@H](CN(O)C=O)C(=O)N[C@H](C(=O)c1cc2ccccc2o1)C(C)(C)C	4
CC(C)(C)[C@H](NC(=O)[C@H](CC1CCCC1)CN(O)C=O)C(=O)c1cc2ccccc2o1	4
CC(C)(C)[C@H](NC(=O)[C@H](CC1CCCC1)CN(O)C=O)C(=O)c1ccc(O)cc1	2
COc1ccc(C(=O)[C@@H](NC(=O)[C@H](CC2CCCC2)CN(O)C=O)C(C)(C)C)cc1	3
CCCC[C@H](CN(O)C=O)C(=O)N[C@H](C(=O)c1ccc(NC(C)=O)cc1)C(C)(C)C	8
CC(C)(C)[C@H](NC(=O)[C@H](CC1CCCC1)CN(O)C=O)C(=O)c1ccc(F)cc1	3
CCCC[C@H](CN(O)C=O)C(=O)N[C@H](C(=O)c1ccc(N2CCOCC2)cc1)C(C)(C)C	5
CCCC[C@H](CN(O)C=O)C(=O)N[C@H](C(=O)c1ccc(N)cc1)C(C)(C)C	8
CCCC[C@H](CN(O)C=O)C(=O)N[C@H](C(=O)c1ccco1)C(C)(C)C	5
CCCC[C@H](CN(O)C=O)C(=O)N[C@H](C(=O)c1ccc(O)cc1)C(C)(C)C	8
CC(C)(C)[C@H](NC(=O)[C@H](CC1CCCC1)CN(O)C=O)C(=O)c1ccc(N2CCN(CCN3CCOCC3)CC2)c(F)c1	6
CCCC[C@H](CN(O)C=O)C(=O)N[C@H](C(=O)c1ccc(C#N)cc1)C(C)(C)C	7
CCCC[C@H](CN(O)C=O)C(=O)N[C@H](C(=O)c1ccc(NC(=O)C(F)(F)F)cc1)C(C)(C)C	20

The compounds below were run on Haemophilus influenzae (assay: Minimum inhibitory concentration required for primary screening against in-house strain of Haemophilus influenzae tested in vitro; Range- 0.125-4).
Assay type: functional

Compound	MIC [µg/mL]
CC(C)(C)[C@H](NC(=O)[C@H](CC1CCCC1)CN(O)C=O)C(=O)c1ccc(N2CCN(CCN3CCOCC3)CC2)c(F)c1	< 4

These compounds were tested on Streptococcus pneumoniae (assay: Minimum inhibitory concentration required for primary screening against in-house strain of Streptococcus pneumoniae tested in vitro; Range- 0.25-0.5).
Assay type: functional

Compound	MIC [µg/mL]
CC(C)(C)[C@H](NC(=O)[C@H](CC1CCCC1)CN(O)C=O)C(=O)c1ccc(N2CCN(CCN3CCOCC3)CC2)c(F)c1	< 0.5

Each compound was assayed on Staphylococcus capitis (assay: Minimum inhibitory concentration required for primary screening against in-house strain of Staphylococcus capitis tested in vitro).
Assay type: functional

Compound	MIC [µM]
CCCC[C@H](CN(O)C=O)C(=O)N[C@H](C(=O)c1ccccc1)C(C)(C)C	12.5 (≈ 4.53 µg/mL)
CC(C)(C)[C@H](NC(=O)[C@H](CC1CCCC1)CN(O)C=O)C(=O)c1ccc(S(C)(=O)=O)cc1	6.25 (≈ 2.92 µg/mL)
CCCC[C@H](CN(O)C=O)C(=O)N[C@H](C(=O)c1cc2ccccc2o1)C(C)(C)C	1.5 (≈ 0.604 µg/mL)
CC(C)(C)[C@H](NC(=O)[C@H](CC1CCCC1)CN(O)C=O)C(=O)c1ccc(O)cc1	3.1 (≈ 1.25 µg/mL)
CCCC[C@H](CN(O)C=O)C(=O)N[C@H](C(=O)c1ccc(N)cc1)C(C)(C)C	12 (≈ 4.53 µg/mL)
CCCC[C@H](CN(O)C=O)C(=O)N[C@H](C(=O)c1ccc(C#N)cc1)C(C)(C)C	3.1 (≈ 1.2 µg/mL)
CCCC[C@H](CN(O)C=O)C(=O)N[C@H](C(C)=O)C(C)(C)C	100 (≈ 30 µg/mL)

These compounds were tested on Moraxella catarrhalis (assay: Minimum inhibitory concentration required for primary screening against in-house strain of Moraxella catarrhalis tested in vitro).
Assay type: functional

Compound	MIC [µg/mL]
CC(C)(C)[C@H](NC(=O)[C@H](CC1CCCC1)CN(O)C=O)C(=O)c1ccc(N2CCN(CCN3CCOCC3)CC2)c(F)c1	0.125 (≈ 0.207 µM)
